Laboratory results as given in patent publication US8299237B2, “Nucleic acid sequences comprising NF-κB binding site within O(6)-methylguanine-DNA-methyltransferase (MGMT) promoter region and uses thereof for the treatment of cancer and immune-related disorders” (Hadasit Medical Research Services & Development Ltd., priority 2007, dated 2012).
“Also recorded” adds a separate entry of the source.

What was measured:
[1] = tested on: glioma cell lines A172, U87MG and T98G; experiment: BCNU crystal violet viability test in glioma cell lines; assay type: cell-based; conditions: BCNU 5-80 μg/ml, 2 hrs; viability 48 hrs later; p<0.001
Description: (§1) Various glioma cell lines (A172, U87MG, and T98G) or HEK293 were transiently transfected with different plasmids as indicated above. For the BG-treated groups, BG (Benzyl Guanine, an MGMT inhibitor) was added to the cell medium 4-6 hrs after transfection at a final concentration of 80 μM and incubated with the cells for the duration of the experiment. At 24 hrs following transfection, the cells were exposed for 2 hrs to increasing concentrations of BCNU (as indicated), which is a β-chloro-nitrosourea compound used as an alkylating agent in chemotherapy. The cells were fixed 48 hrs later with 4% paraformaldehyde for 20 min at room temperature, and washed twice with PBS. A 400 μl volume of 0.5% crystal violet in dH2O was added and the cells were stained for 15 min on a vibrator at 300 rpm. The dye was aspirated, the wells rinsed with dH2O, and the plate was allowed to dry in the hood. For destaining, 400 μl of 10% acetic acid were added to each well and the cells were incubated for 15 min on a vibrator at 300 rpm. The optical density (OD590) of the de-stained solution in each well was read and recorded.
(§2) To determine whether this also results in induction of cellular resistance to alkylating agents, the sensitivity of the three glioma cell lines to increasing quantities of BCNU (5-80 μg/ml), was next compared. […]

[2] = tested on: HEK293 cells; experiment: BG and BCNU treatment, crystal violet viability test in transfected HEK293; assay type: cell-based, human; conditions: BG 80 μM added 4-6 hrs after transfection; control and p65 transfected HEK293; BCNU 20-80 μg/ml 2 hrs
Description: as §1, §2

Row | Structure (SMILES) | resistance of T98G to BCNU compared with A172 and U87MG (in words) [1] | effect of BG on sensitivity to BCNU (in words) [2]
1 | O=NN(CCCl)C(=O)NCCCl [BCNU, 1,3-bis(2-chloroethyl)-1-nitrosourea] | more resistant | –
2 | Nc1nc(OCc2ccccc2)c2nc[nH]c2n1 [BG, O6-Benzylguanine] | – | augmented the cell sensitivity to BCNU; also recorded: completely abrogated the p65-induced chemoresistance
